Marks after values point to notes of the source that are not given here.
Columns and labels:
hEPO mRNA = assay: hEPO expression after intramuscular administration to mice; type: in vivo; details: for Fold increase in hEPO concentration relative to MC3: mice, 0.01 mpk, 6 hr time point; for Lipid/MC3 6 h timepoint / Lipid/MC3 AUC: Table 3I, hEPO
luciferase mRNA = assay: Luciferase expression after subcutaneous administration to mice; type: in vivo, female CD-1 mice; details: for Lipid/MC3 AUC ratio: luciferase; for AUC (luciferase expression): whole body BLI
In short: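 Female CD-1 mice given luciferase mRNA in lipid nanoparticle formulations subcutaneously at 0.5 mpk. Expression read by whole-body bioluminescence imaging at 3, 6 and 24 h, with ex vivo liver, spleen and injection-site luminescence at 24 h.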

IP-10 = assay: Cytokine induction in rats after intravenous administration; type: in vivo, rat; details: for IP-10: rats, 2.0 mpk, 6 hours, hEPO nanoparticle compositions; for IP-10 induction: rat, 48 hours after administration
Protocol: The expression of hEPO and cytokine induction in rats intravenously administered a nanoparticle composition at a dose of 2.0 mpk was measured at 6 h.
Table 19A summarizes the hEPO expression, IP-10 induction, liver and spleen levels, and alanine aminotransferase (ALT) and aspartate aminotransferase (AST) measured upon intravenous administration of formulations including Compounds 48, 49, and 50 to rat at 0.2 and 2 mpk and hEPO mRNA. hEPO concentrations were measured 6 hours after administration, while cytokine induction and liver and spleen levels were measured 48 hours after administration. hEPO and IP-10 concentrations are presented in pg/ml, while liver levels are provided in ng/g. ALT and AST levels are presented in international units.

luciferase (Luc) mRNA [1] = assay: Luc expression in liver, lung, spleen and femur 6 hours after intravenous administration; type: in vivo; details: mice, 0.5 mpk; for Total Flux Femur / Total Flux Liver / Total Flux Lung / Total Flux Spleen: intravenous
In short: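 LNP-formulated mRNA given IV to mice (n=3) at 0.5 mpk; at 6 h, bioluminescence imaged ex vivo 15 min after IP D-luciferin (15 mg/mL, 200 μL), organs imaged within 25 min. Values are total flux by region of interest.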

sC5b-9 = assay: Complement activation in vitro (sC5b-9 levels); type: cell-based; details: human cells contacted in vitro; for sC5b-9 levels relative to saline: in words
Protocol: Complement activation assists in the clearance of pathogens from an organism. As it is undesirable that a subject's body recognize a nanoparticle composition as a foreign invader, low complement system activation upon administration of such a composition is preferred. The complex sC5b-9 is a marker for the activation of the complement system. Thus, human cells were contacted in vitro with nanoparticle compositions according to Table 1A and were evaluated for sC5b-9 levels.

luciferase (Luc) mRNA [2] = assay: Luc expression (total flux) after intramuscular administration; type: in vivo, mice; details: for Total flux, 0.01 mpk Dose / Total flux, 0.001 mpk Dose: Luc mRNA and H10 mRNA; for AUC (p/s * h) / Lipid/MC3 AUC: Table 3H, Luc
In short: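 Total-flux luciferase signal in mice after one intramuscular injection. Nanoparticle formulations contained modified Luc mRNA, either alone or co-dosed with H10 mRNA (e.g., 0.0005 or 0.005 mpk of each), giving 0.001 or 0.01 mpk.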

[3] = 6 hours after intramuscular administration, 0.01 mpk
[4] = 6 hours after intramuscular administration

Compound | IP-10 (IP-10) | Total Flux Femur (luciferase (Luc) mRNA [1]) | Total Flux Liver (luciferase (Luc) mRNA [1]) | Total Flux Lung (luciferase (Luc) mRNA [1]) | Total Flux Spleen (luciferase (Luc) mRNA [1]) | Fold increase in sC5b-9 levels versus saline (sC5b-9) | sC5b-9 levels relative to saline (sC5b-9) | Total flux, 0.01 mpk Dose (luciferase (Luc) mRNA [2]; [3]) | Fold increase in Luc expression relative to MC3, Intramuscular (0.01 mpk dose) (luciferase (Luc) mRNA [2]; intramuscular, 0.01 mpk) | Total flux, 0.001 mpk Dose (luciferase (Luc) mRNA [2]; [4]) | IP-10 induction (IP-10; 0.2 mpk) | IP-10 induction (IP-10; 2 mpk) | other results
CCCCCCCCCOC(=O)CCCCCCCN(CCO)CCCCCCCC(=O)OC(CCCCCCCC)CCCCCCCC [Compound 18, Heptadecan-9-yl 8-((2-hydroxyethyl)(8-(nonyloxy)-8-oxooctyl)amino)octanoate] | 517.3 pg/mL | 4.68E+06 | 2.76E+09 | 1.25E+07 | 5.15E+07 | 1.28 | somewhat increase | 8.84E+07 p/s | 2.01 |  |  |  | Fold increase in hEPO concentration relative to MC3 (hEPO mRNA): 8.6; Novel lipid/MC3 expression ratio, 6 hr. time point, s.c. Luc 0.05 mpk (luciferase mRNA; 0.05 mpk, relative to MC3): 2.63
CCCCCCCCCN(CCO)CCCCCCCC(=O)OC(CCCCCCCC)CCCCCCCC [Compound 3, Heptadecan-9-yl 8-((2-hydroxyethyl)(nonyl)amino)octanoate] | 542 pg/mL | 7.36E+06 | 1.39E+10 | 4.76E+07 | 1.47E+08 |  |  | 4.95E+07 p/s | 1.13 | 3.58E+06 p/s |  |  | Flux in the liver (luciferase (Luc) mRNA [1]; i.v., in words): highest; Fold increase in Luc expression relative to MC3, Intramuscular (0.001 mpk dose) (luciferase (Luc) mRNA [2]; intramuscular): 0.51
CCCCC/C=C\C/C=C\CCCCCCCCC(CCCCCCCC/C=C\C/C=C\CCCCC)OC(=O)CCCN(C)C [MC3, DLin-MC3-DMA, reference compound] | 688.3 pg/mL | 2.56E+06 | 2.57E+09 | 1.27E+07 | 2.85E+07 | 0.73 |  | 3.68E+07 p/s |  | 2.76E+06 p/s | 2 pg/mL | 596 pg/mL | Fold increase in hEPO concentration relative to MC3 (hEPO mRNA): 1; Lipid/MC3 AUC ratio (luciferase mRNA; 0.5 mpk): 1; AUC (luciferase expression) (luciferase mRNA; 0.5 mpk): 1.7127E+10 (p/s) * h; AUC (p/s * h) (luciferase (Luc) mRNA [2]; intramuscular): 5.88E+08 p/s * h; Lipid/MC3 AUC (luciferase (Luc) mRNA [2]; intramuscular): 1; Total flux (p/s) 0.01 mpk Dose (luciferase (Luc) mRNA [2]; Table 5B, 6 hours after intramuscular administration, 0.01 mpk): 3.23E+07 p/s
CCCCCCCCC(CCCCCCCC)OC(=O)CCCCCCCN(CCO)CCCCCCCC(=O)OC(CCCCCCCC)CCCCCCCC [Compound 29, Di(heptadecan-9-yl) 8,8′-((2-hydroxyethyl)azanediyl)dioctanoate] |  | 9.56E+05 | 5.20E+08 | 9.83E+05 | 5.99E+06 | 0.93 | slightly decrease | 1.12E+07 p/s | 0.25 | 7.64E+05 p/s |  |  | Fold increase in Luc expression relative to MC3, Intramuscular (0.001 mpk dose) (luciferase (Luc) mRNA [2]; intramuscular): 0.11
CCCCCCCCC(CCC)OC(=O)CCCCCCCN(CCO)CCCCCCCC(=O)OC(CCCCCCCC)CCCCCCCC (stereo not shown) [Compound 50, dodecan-4-yl 8-((8-(heptadecan-9-yloxy)-8-oxooctyl)(2-hydroxyethyl)amino)octanoate] |  |  | 6.30E+09 | 2.81E+07 | 1.14E+08 |  |  | 1.13E+07 p/s |  | 6.56E+05 p/s | 20 pg/mL | 1065 pg/mL | 
CCCCCCCCC(C)OC(=O)CCCCCCCN(CCO)CCCCCCCC(=O)OC(CCCCCCCC)CCCCCCCC (stereo not shown) [Compound 48, decan-2-yl 8-((8-(heptadecan-9-yloxy)-8-oxooctyl)(2-hydroxyethyl)amino)octanoate] |  |  | 1.08E+10 | 3.31E+07 | 3.49E+08 |  |  | 8.78E+06 p/s |  | 4.69E+05 p/s | 134 pg/mL | 970 pg/mL | Lipid/MC3 6 h timepoint (hEPO mRNA): 8.2; Lipid/MC3 AUC (hEPO mRNA): 7.5; Flux in the liver (luciferase (Luc) mRNA [1]; i.v., in words): highest; Flux in the spleen (luciferase (Luc) mRNA [1]; i.v., in words): highest
CCCCCC/C=C\COC(=O)CCCCCCCN(CCO)CCCCCCCC(=O)OC(CCCCCCCC)CCCCCCCC [Compound 24, Heptadecan-9-yl (Z)-8_((2-hydroxyethyl) (8-(non-2-en-1-yloxy)-8-oxooctyl)amino)octanoate] | 323.5 pg/mL | 4.54E+06 | 4.19E+09 | 1.71E+07 | 8.78E+07 | 0.81 | slightly decrease | 3.97E+07 p/s |  | 3.78E+06 p/s |  |  | Novel lipid/MC3 expression ratio, s.c. Luc 0.5 mpk (AUC) (luciferase mRNA; 0.5 mpk, AUC, relative to MC3): (AUC: 5.21); Lipid/MC3 AUC ratio (luciferase mRNA; 0.5 mpk): 5.21; AUC (luciferase expression) (luciferase mRNA; 0.5 mpk): 8.9281E+10 (p/s) * h; Novel lipid/MC3 ratio, s.c. Luc 6 hr. (luciferase mRNA; 6 hr., relative to MC3, Table 3G): 5.79
CCCCCCCCC(CC)OC(=O)CCCCCCCN(CCO)CCCCCCCC(=O)OC(CCCCCCCC)CCCCCCCC (stereo not shown) [Compound 49, heptadecan-9-yl 8-((2-hydroxyethyl)(8-oxo-8-(undecan-3-yloxy)octyl)amino)octanoate] |  |  | 5.68E+09 | 2.52E+07 | 1.87E+08 |  |  |  |  |  | 66 pg/mL | 932 pg/mL | Lipid/MC3 6 h timepoint (hEPO mRNA): 11.0; Lipid/MC3 AUC (hEPO mRNA): 9.9; AUC (p/s * h) (luciferase (Luc) mRNA [2]; intramuscular): 7.54E+09 p/s * h; Lipid/MC3 AUC (luciferase (Luc) mRNA [2]; intramuscular): 12.82; Novel lipid/MC3 expression ratio, 6 hr. time point, i.m. Luc (luciferase (Luc) mRNA [2]; intramuscular, relative to MC3 formulation): 12.99

Source: US12263248B2, “Compounds and compositions for intracellular delivery of therapeutic agents” (ModernaTX, Inc., priority 2018, dated 2025)
